Reference: US11040035B2, “3-oxo-2,6-diphenyl-2,3-dihydropyridazine-4-carboxamides” (BAYER PHARMA AKTIENGESELLSCHAFT, priority 2016, dated 2021)

Experiments:
[1] = target: T1, AHR (Homo sapiens, UniProt P35869); assay: In vitro assay 2: agonism in human cell line (transactivation assay)
T1 sequence (P35869 11-848): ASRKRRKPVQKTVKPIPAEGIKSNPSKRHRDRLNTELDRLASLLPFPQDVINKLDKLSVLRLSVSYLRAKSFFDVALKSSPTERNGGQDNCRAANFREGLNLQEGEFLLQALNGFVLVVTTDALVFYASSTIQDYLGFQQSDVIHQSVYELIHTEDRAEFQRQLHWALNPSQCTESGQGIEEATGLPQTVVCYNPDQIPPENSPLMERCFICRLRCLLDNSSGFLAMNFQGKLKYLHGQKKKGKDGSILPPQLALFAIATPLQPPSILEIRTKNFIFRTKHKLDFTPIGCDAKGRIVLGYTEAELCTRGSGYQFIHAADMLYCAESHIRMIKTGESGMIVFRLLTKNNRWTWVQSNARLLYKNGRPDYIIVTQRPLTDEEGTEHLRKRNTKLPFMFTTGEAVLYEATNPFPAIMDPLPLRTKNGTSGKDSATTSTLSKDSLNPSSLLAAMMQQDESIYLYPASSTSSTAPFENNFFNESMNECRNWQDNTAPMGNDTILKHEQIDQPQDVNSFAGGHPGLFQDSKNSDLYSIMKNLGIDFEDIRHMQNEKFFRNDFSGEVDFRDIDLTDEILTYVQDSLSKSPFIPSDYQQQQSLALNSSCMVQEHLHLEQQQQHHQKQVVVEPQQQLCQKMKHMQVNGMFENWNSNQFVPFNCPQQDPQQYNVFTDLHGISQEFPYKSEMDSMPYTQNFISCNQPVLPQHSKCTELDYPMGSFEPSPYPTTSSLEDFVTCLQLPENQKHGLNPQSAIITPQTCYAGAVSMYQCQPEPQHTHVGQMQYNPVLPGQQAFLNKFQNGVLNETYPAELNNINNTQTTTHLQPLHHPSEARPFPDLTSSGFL

[2] = target: T1, AHR; assay: In vitro assay 1: antagonism in human cell line (transactivation assay, kynurenic acid prestimulated); conditions: Assay 1: AHR-luc Hum Antagonism IC50 [M], 150 μM kynurenic acid, 20 hours, firefly luciferase
[3] = Assay 2: AHR-luc Hum Agonism IC50 [M], no kynurenic acid, 20 hours, firefly luciferase
[4] = read-out: Assay 2: AHR-luc Hum Agonism IC50, no kynurenic acid, 20 hours, firefly luciferase

| IC50 [1, 3] [M] | IC50 [2] [M] | IC50 [1, 4] [M] | SMILES |
| --- | --- | --- | --- |
| > 2e-05 | 2.21e-07 |  | O=C(NC[C@H]1C[C@H](O)C1)c1cc(-c2ccc(Cl)cc2)nn(-c2cccc(F)c2)c1=O [Example 372, 6-(4-chlorophenyl)-2-(3-fluorophenyl)-N-[(trans-3-hydroxycyclobutyl)-methyl]-3-oxo-2,3-dihydropyridazine-4-carboxamide] |
|  | 3.17e-08 | > 2e-05 | O=C(NCC(O)C(F)(F)F)c1cc(-c2ccc(C(F)(F)F)cc2)nn(-c2cccc(F)c2)c1=O (single isomer, unassigned; (+)) [Example 244] |
| 7.84e-07 |  |  | O=C(NC(CO)C(F)(F)F)c1cc(-c2ccc(C(F)(F)F)cc2)nn(-c2cccc(F)c2)c1=O (racemic) [Example 266, 2-(3-Fluorophenyl)-3-oxo-N-[(2RS)-1,1,1-trifluoro-3-hydroxypropan-2-yl]-6-[4-(trifluoromethyl)phenyl]-2,3-dihydropyridazine-4-carboxamide] |
|  | 6.6e-08 |  | CC[C@@H](CO)NC(=O)c1cc(-c2ccc(Cl)cc2)nn(-c2cccc(Cl)c2)c1=O [Example 60, 2-(3-Chlorophenyl)-6-(4-chlorophenyl)-N-[(2S)-1-hydroxybutan-2-yl]-3-oxo-2,3-dihydropyridazine-4-carboxamide] |
|  | 1.03e-07 |  | Cc1ccc(-c2cc(C(=O)NC(CO)C(C)C)c(=O)n(-c3cccc(F)c3)n2)cc1C (stereo not shown) [Example 82, 6-(3,4-dimethylphenyl)-2-(3-fluorophenyl)-N-(1-hydroxy-3-methylbutan-2-yl)-3-oxo-2,3-dihydropyridazine-4-carboxamide] |
|  | 1.81e-07 |  | Cc1ccc(-c2cc(C(=O)N[C@H](C)CO)c(=O)n(-c3cccc(F)c3)n2)cc1 [Example 9, 2-(3-Fluorophenyl)-N-[(2R)-1-hydroxypropan-2-yl]-6-(4-methylphenyl)-3-oxo-2,3-dihydropyridazine-4-carboxamide] |
|  |  | > 2e-05 | CC(C)(O)C(NC(=O)c1cc(-c2ccc(C(F)(F)F)cc2)nn(-c2cccc(F)c2)c1=O)C(F)(F)F (single isomer, unassigned; (+)) [Example 395, (+)-2-(3-fluorophenyl)-3-oxo-N-(1,1,1-trifluoro-3-hydroxy-3-methylbutan-2-yl)-6-[4-(trifluoromethyl)phenyl]-2,3-dihydropyridazine-4-carboxamide] |
|  | 3.07e-07 |  | Cc1ccc(-c2cc(C(=O)NC(C)CO)c(=O)n(-c3ccccc3)n2)cc1 (stereo not shown) [Example 73, N-(1-hydroxypropan-2-yl)-6-(4-methylphenyl)-3-oxo-2-phenyl-2,3-dihydropyridazine-4-carboxamide] |
|  | 1.5e-07 |  | O=C(NCC(O)C(F)(F)F)c1cc(-c2ccc(Cl)cc2)nn(-c2cccc(Cl)c2)c1=O (stereo not shown) [Example 62, 2-(3-Chlorophenyl)-6-(4-chlorophenyl)-3-oxo-N-(3,3,3-trifluoro-2-hydroxypropyl)-2,3-dihydropyridazine-4-carboxamide] |
|  | 5.34e-08 |  | O=C(NC(CO)C1CCCO1)c1cc(-c2ccc(Cl)cc2)nn(-c2cccc(F)c2)c1=O (single isomer, unassigned) [Example 318, 1,4-anhydro-5-({[6-(4-chlorophenyl)-2-(3-fluorophenyl)-3-oxo-2,3-dihydropyridazin-4-yl]carbonyl}amino)-2,3,5-trideoxyhexitol] |
|  | 1.46e-07 |  | Cc1ccc(-c2cc(C(=O)NC(C)CO)c(=O)n(-c3cccc(F)c3)n2)cc1C (stereo not shown) [Example 88, 6-(3,4-dimethylphenyl)-2-(3-fluorophenyl)-N-(1-hydroxypropan-2-yl)-3-oxo-2,3-dihydropyridazine-4-carboxamide] |
| 6.56e-08 |  |  | CC(C)[C@H](CO)NC(=O)c1cc(-c2ccc(C(F)(F)F)cc2)nn(-c2cccc(F)c2)c1=O [Example 240, 2-(3-Fluorophenyl)-N-[(2R)-1-hydroxy-3-methylbutan-2-yl]-3-oxo-6-[4-(trifluoromethyl)phenyl]-2,3-dihydropyridazine-4-carboxamide] |
|  | 1.2e-07 |  | O=C(NC(CO)C1CCCO1)c1cc(-c2ccc(C(F)(F)F)cc2)nn(-c2cccc(F)c2)c1=O (single isomer, unassigned) [Example 355, 1,4-anhydro-2,3,5-trideoxy-5-[({2-(3-fluorophenyl)-3-oxo-6-[4-(trifluoromethyl)phenyl]-2,3-dihydropyridazin-4-yl}carbonyl)amino]hexitol] |
|  | 3.66e-06 |  | Cc1ccc(-c2cc(C(=O)N[C@@H](CO)C(C)C)c(=O)n(-c3cccc(F)c3)n2)cc1C [Example 84, 6-(3,4-dimethylphenyl)-2-(3-fluorophenyl)-N-[(2R)-1-hydroxy-3-methylbutan-2-yl]-3oxo-2,3-dihydropyridazine-4-carboxamide] |
|  | 3e-07 |  | CC(CO)NC(=O)c1cc(-c2ccc(Cl)cc2)nn(-c2cccc(Cl)c2)c1=O (stereo not shown) [Example 65, 2-(3-Chlorophenyl)-6-(4-chlorophenyl)-N-(1-hydroxypropan-2-yl)-3-oxo-2,3-dihydropyridazine-4-carboxamide] |
|  | 6.75e-07 |  | Cc1ccc(-c2cc(C(=O)N[C@H](C)CO)c(=O)n(-c3cccc(F)c3)n2)cc1C [Example 90, 6-(3,4-dimethylphenyl)-2-(3-fluorophenyl)-N-[(2R)-1-hydroxypropan-2-yl]-3-oxo-2,3-dihydropyridazine-4-carboxamide] |
|  | 6.06e-08 |  | COCCC(CO)NC(=O)c1cc(-c2ccc(C(F)(F)F)cc2)nn(-c2cccc(F)c2)c1=O (single isomer, unassigned; (+)) [Example 332, (+)-2-(3-fluorophenyl)-N-(1-hydroxy-4-methoxybutan-2-yl)-3-oxo-6-[4-(trifluoromethyl)phenyl]-2,3-dihydropyridazine-4-carboxamide] |
|  | 8.39e-08 |  | CC(CO)NC(=O)c1cc(-c2ccc(Cl)cc2)nn(-c2cccc(F)c2)c1=O (stereo not shown) [Example 22, 6-(4-Chlorophenyl)-2-(3-fluorophenyl)-N-(1-hydroxypropan-2-yl)-3-oxo-2,3-dihydropyridazine-4-carboxamide] |
|  | 2.11e-06 |  | Cc1ccc(-c2cc(C(=O)N[C@@H](CO)C(C)C)c(=O)n(-c3ccccc3)n2)cc1 [Example 72, N-[(2R)-1-hydroxy-3-methylbutan-2-yl]-6-(4-methylphenyl)-3-oxo-2-phenyl-2,3-dihydropyridazine-4-carboxamide] |
|  | 4.96e-08 |  | CC(C)[C@@H](CO)NC(=O)c1cc(-c2ccc(Cl)cc2)nn(-c2cccc(Cl)c2)c1=O [Example 59, 2-(3-Chlorophenyl)-6-(4-chlorophenyl)-N-[(2S)-1-hydroxy-3-methylbutan-2-yl]-3-oxo-2,3-dihydropyridazine-4-carboxamide] |
|  | 3.89e-07 |  | CC(C)C(O)CNC(=O)c1cc(-c2ccc(Cl)cc2)nn(-c2cccc(Cl)c2)c1=O (stereo not shown) [Example 67, 2-(3-Chlorophenyl)-6-(4-chlorophenyl)-N-(2-hydroxy-3-methylbutyl)-3-oxo-2,3-dihydropyridazine-4-carboxamide] |
|  | 2.1e-06 |  | Cc1ccc(-c2cc(C(=O)NCCO)c(=O)n(-c3ccccc3)n2)cc1 [Example 74, N-(2-hydroxyethyl)-6-(4-methylphenyl)-3-oxo-2-phenyl-2,3-dihydropyridazine-4-carboxamide] |
| > 2e-05 |  |  | CC(C)[C@@H](CO)NC(=O)c1cc(-c2ccc(C(F)(F)F)cc2)nn(-c2cccc(F)c2)c1=O [Example 239, 2-(3-Fluorophenyl)-N-[(2S)-1-hydroxy-3-methylbutan-2-yl]-3-oxo-6-[4-(trifluoromethyl)phenyl]-2,3-dihydropyridazine-4-carboxamide] |
| > 2e-05 |  |  | CC(O)C(NC(=O)c1cc(-c2ccc(C(F)(F)F)cc2)nn(-c2cccc(F)c2)c1=O)C(F)(F)F (racemic) [Example 260, 2-(3-Fluorophenyl)-3-oxo-N-[(2RS,3RS)-1,1,1-trifluoro-3-hydroxybutan-2-yl]-6-[4-(trifluoromethyl)phenyl]-2,3-dihydropyridazine-4-carboxamide or 2-(3-fluorophenyl)-3-oxo-N-[(2SR,3RS)-1,1,1-trifluoro-3-hydroxybutan-2-yl]-6-[4-(trifluoromethyl)phenyl]-2,3-dihydropyridazine-4-carboxamide] |
| > 2e-05 |  |  | O=C(N[C@@H]1CCC[C@@H]1O)c1cc(-c2ccc(Cl)cc2)nn(-c2cccc(F)c2)c1=O [Example 133, 6-(4-Chlorophenyl)-2-(3-fluorophenyl)-N-[(1R,2S)-2-hydroxycyclopentyl]-3-oxo-2,3-dihydropyridazine-4-carboxamide] |
| > 2e-05 |  |  | CC(NC(=O)c1cc(-c2ccc(Cl)cc2)nn(-c2cccc(F)c2)c1=O)C(O)C(F)(F)F (mixture of isomers) [Example 217, Isomeric mixture no. 1 of 6-(4-chlorophenyl)-2-(3-fluorophenyl)-3-oxo-N-(4,4,4-trifluoro-3-hydroxybutan-2-yl)-2,3-dihydropyridazine-4-carboxamide] |
